Results taken from patent publication US4410514A, “GnRH Agonists” (The Salk Institute for Biological Studies, priority 1982, dated 1983).
Where a SMILES comes first, the peptide text is derived from it. [ ]: non-standard residue; d: D form. pGlu = O=C1CC[C@@H](C(=O)O)N1

System: release of LH by the anterior pituitary in fish
Assay: in vivo salmon assay, radioimmunoassay for LH level in blood
Conditions: salmon of about 2 kg, about 10 μg injected per fish, blood taken about 2 hours after injection, same amount of mammalian GnRH as comparator
Method: The peptide is assayed in vivo using salmon having an average weight of about 2 kg, and each fish is injected with about 10 μg. Additional fish are injected with the same amount of mammalian GnRH. Both sets are then compared with controls. About 2 hours following injection, the salmon are sacrificed, and the blood withdrawn for specific radioimmunoassay for LH level.

CCNC(=O)[C@@H]1CCCN1C(=O)[C@H](CC(C)C)NC(=O)[C@H](Cc1c[nH]c2ccccc12)NC(=O)[C@@H](C)NC(=O)[C@H](Cc1ccc(O)cc1)NC(=O)[C@H](CO)NC(=O)[C@H](Cc1c[nH]c2ccccc12)NC(=O)[C@H](Cc1c[nH]cn1)NC(=O)[C@@H]1CCC(=O)N1 [Peptide 1, pGlu--His--Trp--Ser--Tyr--D--Ala--Trp--Leu--Pro--NHCH2 CH3] ([pGlu]HWSY[dA]WLP-NHEt)
potency in causing the release of LH by the anterior pituitary, compared with mammalian GnRH: substantially more potent than mammalian GnRH
